The values below come from ChEMBL document CHEMBL5614458, “Benign-by-Design SAHA Analogues for Human and Animal Vector-Borne Parasitic Diseases” (ACS Med Chem Lett, 2024).

Each structure is given as a SMILES string. The source made the active and inactive calls. The rule behind the calls is not given here.

In general, EC50 refers to the concentration needed to bring the measured effect to its halfway point. Low readings indicate higher potency in that assay, high ones lower potency in that assay. As a reminder, the IC50 is the midpoint of a concentration-inhibition curve. A high value points to lower potency.

One data set relates to Trypanosoma brucei. Put plainly: microbe, parasite or virus in culture. It is filed as functional, organism-based. The note with it: Lister 427WT, 48 h.
In data set [1] the test system is HepG2. Put plainly: Cytotoxicity against human HepG2 cells assessed as cell viability at 10 uM incubated for 24 hrs by MTT assay. It counts as toxicity, cell-based. The note with it: hepg2, 24 h. On the technique in general: Tetrazolium dyes change colour on reduction, which living cells bring about.
The target in data set [2] is T1, Histone deacetylase (Homo sapiens) (UniProt Q13547+O15379+Q9UBN7+Q92769+Q9UQL6+Q8WUI4+Q9BY41+Q96DB2+P56524+Q9UKV0+Q969S8). Put plainly: Inhibition of HDAC in human MET5A cells transfected with Rluc-Brd/YFP-fused histone H3 by BRET assay. It is filed as cell-based. As to conditions: dose 0.1-10 µM.
The test system of a further data set is Leishmania amazonensis. Put plainly: Antiparasitic activity against Leishmania amazonensis MHOM/BR/77/LTB0016 amastigotes infected in BALB/c mouse incubated for 48 hrs by Alamar Blue assay. It counts as functional, organism-based. As to conditions: MHOM/BR/77/LTB0016, 48 h. In general terms: Resazurin is reduced to fluorescent resorufin, in cell work by metabolically active cells.

The test system of another data set is IMR-32. Put plainly: Cytotoxicity against human IMR-32 cells assessed as cell viability at 10 uM incubated for 24 hrs by MTT assay. It is filed as toxicity, cell-based. The note with it: imr-32, 24 h.
In another data set the test system is Trypanosoma cruzi. Put plainly: Antiparasitic activity against Trypanosoma cruzi Tulahuen intracellular forms infected in mouse L929 cells incubated for 96 hrs by spectrophotometery. It counts as functional, organism-based. As to conditions: L929, 96 h.
Data set [3] can be described thus: Cytotoxicity against mouse L929 cells incubated for 96 hrs by Alamar Blue assay. It counts as toxicity, cell-based. The note with it: read-out: LC50.
The next data set deals with Leishmania mexicana. Put plainly: Antiparasitic activity against Leishmania mexicana Cas9 promastigotes incubated for 48 hrs by Resazurin assay. It is filed as functional, organism-based. The note with it: Cas9, 48 h.
For data set [4], the target named is T1, Histone deacetylase (Homo sapiens). Put plainly: Inhibition of HDAC in human MET5A cells transfected with Rluc-Brd/YFP-fused histone H3 at 0.1 to 10 uM by BRET assay. It is filed as cell-based. As to conditions: dose 0.1-10 µM. For orientation: BRET reads energy transfer from a luciferase to a nearby fluorophore.
Data set [5] concerns HepG2. Put plainly: Cytotoxicity against human HepG2 cells assessed as reduction in cell viability at 10 uM incubated for 24 hrs by MTT assay relative to control. It counts as toxicity, cell-based. As to conditions: hepg2, 24 h.
Data set [6] addresses T2, Protein deacetylase HDAC6 (Homo sapiens, UniProt Q9UBN7).
T2 sequence (Q9UBN7 whole entry): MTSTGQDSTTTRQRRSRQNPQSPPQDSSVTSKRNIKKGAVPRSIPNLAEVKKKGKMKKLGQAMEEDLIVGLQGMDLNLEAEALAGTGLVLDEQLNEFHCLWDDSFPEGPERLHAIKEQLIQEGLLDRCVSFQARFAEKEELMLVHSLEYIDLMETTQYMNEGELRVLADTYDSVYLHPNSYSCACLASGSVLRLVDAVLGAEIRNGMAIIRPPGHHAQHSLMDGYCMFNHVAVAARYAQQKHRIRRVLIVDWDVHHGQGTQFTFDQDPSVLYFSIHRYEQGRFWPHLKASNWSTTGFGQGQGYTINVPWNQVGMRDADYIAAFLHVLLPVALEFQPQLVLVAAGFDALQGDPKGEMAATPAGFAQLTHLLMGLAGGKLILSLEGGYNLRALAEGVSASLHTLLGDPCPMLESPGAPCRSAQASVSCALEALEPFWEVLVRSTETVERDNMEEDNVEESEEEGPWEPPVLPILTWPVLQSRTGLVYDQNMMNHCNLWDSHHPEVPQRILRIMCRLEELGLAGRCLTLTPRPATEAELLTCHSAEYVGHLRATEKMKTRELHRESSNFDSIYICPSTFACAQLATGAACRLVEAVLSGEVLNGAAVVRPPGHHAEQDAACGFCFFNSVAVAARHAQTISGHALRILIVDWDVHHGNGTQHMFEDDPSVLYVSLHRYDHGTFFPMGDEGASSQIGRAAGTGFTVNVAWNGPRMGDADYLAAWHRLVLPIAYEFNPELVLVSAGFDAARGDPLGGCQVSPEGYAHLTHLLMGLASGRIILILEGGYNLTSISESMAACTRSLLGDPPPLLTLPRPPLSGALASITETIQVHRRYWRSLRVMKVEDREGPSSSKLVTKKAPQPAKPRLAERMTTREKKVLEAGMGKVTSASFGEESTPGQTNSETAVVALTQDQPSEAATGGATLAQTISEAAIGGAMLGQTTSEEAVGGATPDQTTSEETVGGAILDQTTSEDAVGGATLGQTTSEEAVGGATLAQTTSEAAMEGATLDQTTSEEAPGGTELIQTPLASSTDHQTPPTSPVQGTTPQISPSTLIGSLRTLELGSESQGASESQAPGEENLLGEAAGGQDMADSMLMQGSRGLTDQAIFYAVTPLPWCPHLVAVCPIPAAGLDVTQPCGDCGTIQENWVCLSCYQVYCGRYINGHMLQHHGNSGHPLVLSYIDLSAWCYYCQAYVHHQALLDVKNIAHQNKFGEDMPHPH
Put plainly: Inhibition of HDAC6 (unknown origin) using RHKK(Ac)AMC as substrate.

Description for Trypanosoma brucei: Antiparasitic activity against Trypanosoma brucei Lister 427WT bloodstream trypomastigotes incubated for 48 hrs by Resazurin assay

As for `O=C(CCCCCCCCCCCc1cccc(OCc2ccccc2)c1)NO`, the EC50 was 4.8 µM in the data set on Trypanosoma brucei, 14.5 µM in the data set with Leishmania amazonensis, over 10 µM in the data set with Trypanosoma cruzi and 69 µM with Leishmania mexicana. Further, the Activity result with HepG2 [1] and in the data set on IMR-32 was “Non-Toxic” each time. Moreover, the inhibition entry in [2] was “Dose-Dependent Effect”. In [3], the CC50 at 96 h worked out at 90 µM.

The compound `CCCCCCCCCCCCCCCCOP(=O)([O-])OCC[N+](C)(C)C` [MILTEFOSINE] showed a 50% effective concentration (EC50) in the data set on Leishmania amazonensis of 1.38 µM.

Regarding `COc1cccc(CCCCCCCCCCCC(=O)NO)c1`, the concentration for a half-maximal effect (EC50) with Trypanosoma brucei is 0.7 µM; in the data set on Leishmania amazonensis, over 30 µM; in the data set on Trypanosoma cruzi, over 10 µM; in the data set with Leishmania mexicana, 104 µM. Also, in data set [4], the inhibition result was “inactive”. Also, the Activity entry with IMR-32 is on record as “Non-Toxic”; with HepG2 [5] it was 25%. Besides, the CC50 at 96 h in data set [3] amounted to 157 µM.

Consider `COc1cccc(CCCCCCCCCCCC(=O)Nc2ccccc2N)c1`, for which the EC50 in the data set with Trypanosoma brucei was 14.4 µM; in the data set on Trypanosoma cruzi, over 10 µM; with Leishmania mexicana, over 100 µM. Moreover, the inhibition entry in data set [4] is “inactive”. The Activity entry in the data set with HepG2 [1] and in the data set on IMR-32 was “Non-Toxic” in each case. Moreover, the CC50 at 96 h in data set [3] is over 200 µM.

With `Nc1ccccc1NC(=O)CCCCCCCCCCCc1cccc(OC(=O)c2ccccc2)c1`, the 50% effective concentration (EC50) in the data set with Trypanosoma brucei is 8.5 µM; in the data set with Leishmania amazonensis, over 30 µM; with Trypanosoma cruzi, over 10 µM; in the data set with Leishmania mexicana it was over 100 µM. Further, the inhibition entry in data set [4] is “inactive”. Further, the Activity entry in the data set with HepG2 [1] and with IMR-32 was “Non-Toxic” each time. In [3], the CC50 at 96 h was over 200 µM.

As for `O=C(CCCCCCCCCCCc1cccc(OC(=O)c2ccccc2)c1)NO`, the concentration giving a half-maximal response (EC50) in the data set with Trypanosoma brucei is 4.8 µM; with Leishmania amazonensis, over 30 µM; in the data set on Trypanosoma cruzi it was over 10 µM; with Leishmania mexicana it was 54 µM. For the same compound, the inhibition result in [4] was “inactive”. Moreover, the Activity result in the data set on HepG2 [1] and in the data set on IMR-32 was “Non-Toxic” each time. Besides, the CC50 at 96 h in data set [3] amounted to 79 µM.

For `N=C(N)c1ccc(OCCCCCOc2ccc(C(=N)N)cc2)cc1` [PENTAMIDINE], the EC50 in the data set on Trypanosoma brucei turned out to be 0.021 µM; in the data set with Leishmania mexicana, 1.3 µM.

Take `C[C@@H]1[C@H](O)[C@@H](C)/C=C/C=C/C=C/C=C/C=C/C=C/C=C/[C@H](O[C@@H]2O[C@H](C)[C@@H](O)[C@H](N)[C@@H]2O)C[C@@H]2O[C@](O)(C[C@@H](O)C[C@@H](O)[C@H](O)CC[C@@H](O)C[C@@H](O)CC(=O)O[C@H]1C)C[C@H](O)[C@H]2C(=O)O` [AMPHOTERICIN B]: in the data set with Leishmania mexicana, the midpoint of the response, the EC50, lay at 0.15 µM.

Turning to `Nc1ccccc1NC(=O)CCCCCCCCCCCc1cccc(O)c1`, the concentration giving a half-maximal response (EC50) in the data set with Trypanosoma brucei is 7.2 µM; in the data set with Leishmania amazonensis, over 30 µM; in the data set on Trypanosoma cruzi, over 10 µM; in the data set on Leishmania mexicana, 58 µM. In addition, the inhibition result in data set [4] was “inactive”. Also, the Activity result with HepG2 [1] and with IMR-32 was “Non-Toxic” throughout. Also, the CC50 at 96 h in data set [3] came out at 145 µM.

The compound `O=C(Cn1ccnc1[N+](=O)[O-])NCc1ccccc1` [BENZNIDAZOLE] had an EC50 in the data set on Trypanosoma cruzi of 2.63 µM. The CC50 at 96 h in data set [3] is over 200 µM.

On to `Nc1ccccc1NC(=O)CCCCCCCCCCCc1cccc(OCc2ccccc2)c1`, for which the EC50 in the data set on Trypanosoma brucei is 78.3 µM; in the data set with Leishmania amazonensis it was over 30 µM; with Trypanosoma cruzi, over 10 µM; in the data set with Leishmania mexicana, over 100 µM. In addition, the inhibition result in [4] was “inactive”. For the same compound, the Activity entry in the data set on HepG2 [1] and in the data set on IMR-32 was “Non-Toxic” throughout. Also, the CC50 at 96 h in [3] is over 200 µM.

On to `O=C(CCCCCCCCCCCc1cccc(O)c1)NO`, for which the 50% effective concentration (EC50) with Trypanosoma brucei was 5.1 µM; in the data set with Leishmania amazonensis it was over 30 µM; in the data set on Trypanosoma cruzi, over 10 µM; in the data set on Leishmania mexicana, about 100 µM. For the same compound, the Activity result with HepG2 [1] and in the data set with IMR-32 was “Non-Toxic” throughout. In data set [2], the inhibition entry was “Dose-Dependent Effect”. Besides, the CC50 at 96 h in data set [3] is 151 µM. This compound yielded an IC50 in [6] of 1.01 µM.
